This note sets out measurements from US5178877A, “Encapsulated renin inhibitor composition” (priority 1991, dated 1993).

A short description of series [1]: Oral bioavailability studies in fasted dogs. As to conditions: dog, in vivo. The procedure:
The following compositions comprising compound I were prepared and the bioavailability of each composition was determined in fasted dogs. Dogs (beagle dogs, mixed sexes, weighing about 10 kg) were fasted for at least 12 hours before dosing. Food was returned after the last blood sample was collected (24 hours). Water was available at all times. A dose equivalent to 50 or 100 milligrams of compound I was administered by mouth to each dog, followed with either 20 or 50 ml of water, respectively, through a feeding tube. […] Blood samples of 3 ml volume were anti-coagulated with EDTA. The plasma was separated by centrifugation and frozen until analyzed. Blood plasma concentrations of compound I were determined by HPLC. Bioavailability was calculated as follows: % Bioavailability=[(AUC)oral×D/(AUC)intravenous]×100. (AUC)oral and (AUC)intravenous are the areas under the curve for the plasma concentration-time profiles following oral and intravenous administration, respectively. D is a correlation factor for the difference between intravenous administration (3 mg/kg) and oral administration (about 10 mg/kg).

The next series deals with salt depleted dogs. Description: Blood pressure lowering in salt depleted dogs. The format is in vivo, dog. Conditions: after oral or intravenous administration.

As for `CC(C)C[C@H](O)[C@H](O)[C@H](CC1CCCCC1)NC(=O)[C@H](Cc1cscn1)NC(=O)[C@H](Cc1ccccc1)CS(=O)(=O)N1CCN(C)CC1` [compound I, (2S)-2-Benzyl-3-(1-methyl-piperazin-4-ylsulfonyl)propionyl-(L)-(4-Thiazolyl)Ala Amide of (2S, 3R, 4S)-2-Amino-1-cyclohexyl-3,4-dihydroxy-6-methylheptane], the “times more bioavailable as soft elastic gelatin encapsulated solution compared to standard solid capsule or tablet compositions” value in series [1] is 2.1-5.2 times. In addition, the blood pressure result in the series with salt depleted dogs was “reduces blood pressure”.
